Laboratory results published in paper PMC6327951 (The Journal of organic chemistry, 2018).
“Also recorded” adds a separate entry of the source. Read-outs that look alike come from different tables or passages of the source.

How the values were obtained:
SpNanB [1] = biological target: T1, SpNanB (Streptococcus pneumoniae serotype 4, UniProt Q54727); test: Sialidase inhibition assay, 384-well colorimetric, Neu5Acα2–3GalβpNP substrate; format: biochemical; settings: for Inhibitory activity against SpNanB: inhibitor 1 mM
SpNanB [2] = biological target: T1, SpNanB; test: SpNanB-catalyzed hydrolysis assay; format: biochemical; settings: 10 mM compound, SpNanB 1 mg/mL, NaOAc pH 6.0 or Tris-HCl pH 7.0, 24 h
SpNanA [3] = biological target: T2, SpNanA (Streptococcus pneumoniae, UniProt P62575); test: Sialidase inhibition assay, 384-well colorimetric, Neu5Acα2–3GalβpNP substrate; format: biochemical; settings: inhibitor 1 mM
SpNanC [4] = biological target: T3, SpNanC (Streptococcus pneumoniae, UniProt A0A0H2UQE4); test: as above; format: biochemical
[5] = tested on: SpNanA, SpNanB, SpNanC, PmST1, BiNanH2, AuSialidase, CpNanI, VcSialidase, hNEU2; test: Sialidase inhibition assay at 1 mM, whole panel of sialidases tested; format: biochemical; settings: inhibitor 1 mM
SpNanC [6] = biological target: T3, SpNanC; settings: cited from earlier work
SpNanB [7] = biological target: T1, SpNanB; settings: cited from earlier work
VcSialidase = VcSialidase (Vibrio cholerae serotype O1, UniProt P0C6E9); test: Sialidase inhibition assay, 384-well colorimetric, Neu5Acα2–3GalβpNP substrate; format: biochemical
AuSialidase = AuSialidase (Paenarthrobacter ureafaciens, UniProt Q5W7Q2); test: as above; format: biochemical, Arthrobacter ureafaciens; settings: inhibitor 1 mM
SpNanA [8] = biological target: T2, SpNanA; settings: cited from earlier work
IT-sialidase RgNanH = settings: cited from earlier work

T1 sequence (Q54727 30-697): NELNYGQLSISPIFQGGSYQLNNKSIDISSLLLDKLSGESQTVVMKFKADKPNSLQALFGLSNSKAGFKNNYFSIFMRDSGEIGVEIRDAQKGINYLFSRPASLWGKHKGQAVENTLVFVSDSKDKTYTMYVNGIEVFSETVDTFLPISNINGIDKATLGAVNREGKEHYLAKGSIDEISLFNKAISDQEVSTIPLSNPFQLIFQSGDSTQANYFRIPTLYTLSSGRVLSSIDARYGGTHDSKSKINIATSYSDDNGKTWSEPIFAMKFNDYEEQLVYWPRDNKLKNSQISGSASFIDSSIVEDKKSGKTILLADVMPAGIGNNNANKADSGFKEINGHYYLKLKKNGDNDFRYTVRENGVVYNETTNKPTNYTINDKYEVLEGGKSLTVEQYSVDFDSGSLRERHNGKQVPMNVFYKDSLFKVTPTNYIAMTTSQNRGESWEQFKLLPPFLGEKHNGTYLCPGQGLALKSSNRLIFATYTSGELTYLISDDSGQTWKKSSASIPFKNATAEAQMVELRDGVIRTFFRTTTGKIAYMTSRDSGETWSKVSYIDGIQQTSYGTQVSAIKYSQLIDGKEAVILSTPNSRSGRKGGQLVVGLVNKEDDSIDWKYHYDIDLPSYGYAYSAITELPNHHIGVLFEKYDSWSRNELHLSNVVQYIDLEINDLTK
T2 sequence (P62575 54-1035): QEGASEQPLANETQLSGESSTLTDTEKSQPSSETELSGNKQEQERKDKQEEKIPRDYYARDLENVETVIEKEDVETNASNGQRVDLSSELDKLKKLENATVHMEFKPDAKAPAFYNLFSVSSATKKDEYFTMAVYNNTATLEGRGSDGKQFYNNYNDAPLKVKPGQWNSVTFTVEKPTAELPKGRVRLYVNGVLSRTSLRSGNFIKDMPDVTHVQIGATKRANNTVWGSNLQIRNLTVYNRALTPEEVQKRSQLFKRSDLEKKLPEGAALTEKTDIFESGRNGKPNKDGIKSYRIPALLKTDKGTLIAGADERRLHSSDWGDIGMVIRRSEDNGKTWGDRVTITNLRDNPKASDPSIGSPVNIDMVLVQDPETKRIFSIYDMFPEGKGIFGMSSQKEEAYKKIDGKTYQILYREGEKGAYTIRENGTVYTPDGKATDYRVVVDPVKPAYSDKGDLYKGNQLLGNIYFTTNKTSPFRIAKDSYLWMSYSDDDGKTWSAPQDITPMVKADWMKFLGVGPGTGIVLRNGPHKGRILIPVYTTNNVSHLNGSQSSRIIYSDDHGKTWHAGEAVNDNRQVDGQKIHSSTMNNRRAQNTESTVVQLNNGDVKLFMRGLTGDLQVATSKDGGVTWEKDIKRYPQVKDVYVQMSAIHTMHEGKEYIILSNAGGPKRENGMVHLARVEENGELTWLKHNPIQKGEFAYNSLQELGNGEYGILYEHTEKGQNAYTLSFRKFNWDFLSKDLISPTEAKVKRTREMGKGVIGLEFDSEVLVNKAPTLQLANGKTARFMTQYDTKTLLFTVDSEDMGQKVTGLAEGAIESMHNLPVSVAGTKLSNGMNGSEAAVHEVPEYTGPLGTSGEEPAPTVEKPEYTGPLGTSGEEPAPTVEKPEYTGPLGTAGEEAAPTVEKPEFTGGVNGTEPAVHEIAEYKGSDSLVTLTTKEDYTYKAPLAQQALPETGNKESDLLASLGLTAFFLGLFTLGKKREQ
VcSialidase, sequence (P0C6E9 25-781): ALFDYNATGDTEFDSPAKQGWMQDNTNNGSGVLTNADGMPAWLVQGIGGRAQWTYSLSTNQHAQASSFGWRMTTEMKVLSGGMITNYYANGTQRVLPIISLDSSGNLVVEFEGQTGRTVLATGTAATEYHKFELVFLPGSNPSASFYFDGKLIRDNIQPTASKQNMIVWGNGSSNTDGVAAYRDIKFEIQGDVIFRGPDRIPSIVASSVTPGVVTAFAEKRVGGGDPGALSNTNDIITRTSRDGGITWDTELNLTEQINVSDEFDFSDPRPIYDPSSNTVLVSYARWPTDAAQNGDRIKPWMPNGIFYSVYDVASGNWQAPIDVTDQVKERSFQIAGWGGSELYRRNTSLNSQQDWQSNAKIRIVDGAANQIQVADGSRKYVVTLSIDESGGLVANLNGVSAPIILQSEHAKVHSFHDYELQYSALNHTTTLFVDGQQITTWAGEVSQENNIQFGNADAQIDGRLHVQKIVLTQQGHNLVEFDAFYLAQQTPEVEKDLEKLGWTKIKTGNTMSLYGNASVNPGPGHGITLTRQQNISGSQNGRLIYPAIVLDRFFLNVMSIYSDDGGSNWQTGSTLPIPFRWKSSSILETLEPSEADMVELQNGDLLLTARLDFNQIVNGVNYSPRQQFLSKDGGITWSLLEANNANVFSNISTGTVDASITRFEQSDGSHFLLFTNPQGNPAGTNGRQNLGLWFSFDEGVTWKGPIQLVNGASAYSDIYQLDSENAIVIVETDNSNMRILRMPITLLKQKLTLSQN

In the case of `O=C(N[C@H]1[C@H]2O[C@@](C(=O)O)(C[C@@H]1O)O[C@@H]2[C@H](O)CO)C1CCCCC1` [compound 4, 2,7-Anhydro-5-cyclohexylamido-3,5-dideoxy-α-D-glycero-D-galacto-non-2-ulopyranosonic acid], the “Inhibitory activity against SpNanB” value (SpNanB [1]) is reported as “noticeable inhibitory activity”, the “Hydrolysis by SpNanB” value (SpNanB [2]) is reported as “resistant to SpNanB hydrolysis; also recorded: remained intact” and the “Inhibitory activity against SpNanA” value (SpNanA [3]) is reported as “noticeable inhibitory activity”. For the same compound, the “Inhibitory activity against SpNanC” value (SpNanC [4]; inhibitor 1 mM) was “noticeable inhibitory activity”.
In the case of `N[C@H]1[C@H]2O[C@@](C(=O)O)(C[C@@H]1O)O[C@@H]2[C@H](O)CO` [compound 3, 5-Amino-2,7-anhydro-3,5-dideoxy-α-D-glycero-D-galacto-non-2-ulopyranosonic acid], the “Inhibition against any sialidases tested” value [5] is reported as “no significant inhibition”.
For `CC(=O)N[C@H]1[C@H]([C@H](O)[C@H](O)CO)OC(C(=O)O)=C[C@@H]1O` [Neu5Ac2en, 2,3-dehydro-2-deoxy-N-acetylneuraminic acid], the “IC50 against SpNanC” value (SpNanC [6]) is listed as “submillimolar range” and the “Inhibition against SpNanB” value (SpNanB [7]; other reports) is listed as “millimolar inhibitor”.
With `CC(=O)N[C@H]1[C@H]2O[C@@](C(=O)O)(C[C@@H]1O)O[C@@H]2[C@H](O)CO` [compound 1, 5-Acetamido-2,7-anhydro-3,5-dideoxy-α-D-glycero-D-galacto-non-2-ulopyranosonic acid] the “Hydrolysis by SpNanB” value (SpNanB [2]) was “can be hydrolyzed by SpNanB; also recorded: most 2,7-anhydro-Neu5Ac (1) was converted to Neu5Ac” and the “Inhibition against any sialidases tested” value [5] was “no significant inhibition”.
For `O=C(N[C@H]1[C@H]2O[C@@](C(=O)O)(C[C@@H]1O)O[C@@H]2[C@H](O)CO)C(F)(F)F` [compound 2, 2,7-Anhydro-3,5-dideoxy-5-trifluoroacetamido-α-D-glycero-D-galacto-non-2-ulopyranosonic acid], the IC50 (SpNanB [1]) was 250 to 500 µM, the “Inhibitory activity against SpNanB” value (SpNanB [1]) was “some inhibitory activity” and the IC50 (VcSialidase) was 500 to 1000 µM. For the same compound, the “Inhibitory activity against VcSialidase” value (VcSialidase; inhibitor 1 mM) was “some inhibitory activity”, the “Inhibitory activity against AuSialidase” value (AuSialidase) was “some inhibitory activity” and the “Inhibitory activity against SpNanA” value (SpNanA [3]) was “some inhibitory activity”. For the same compound, the IC50 (SpNanC [4]) was over 1000 µM.
In the case of `O=C(CCc1ccccc1)C[C@@H]1C[C@@H](c2ccccc2)c2c(cc(/C=C/c3ccccc3)oc2=O)O1` [katsumadain A], the “Inhibition against SpNanB” value (SpNanB [7]) is given as “reported to be inhibitors”.
For `COc1cc2oc(-c3ccc(O)cc3O)c(CC=C(C)C)c(=O)c2c(O)c1/C=C/C(C)C` [artocarpin], the “Inhibition against SpNanB” value (SpNanB [7]) is given as “reported to be inhibitors”.
In the case of `O=C(CCCCCCCCc1ccc(O)c(O)c1)c1c(O)cccc1O` [malabaricone C], the “IC50 against SpNanC” value (SpNanC [6]) is listed as “submicromolar range”, the “IC50 against SpNanB” value (SpNanB [7]) is listed as “submicromolar range” and the “IC50 against SpNanA” value (SpNanA [8]) is listed as “submicromolar range”.
For `CCOC(=O)C1=C[C@@H](OC(CC)CC)[C@H](NC(C)=O)[C@@H](N)C1` [Oseltamivir], the “Inhibitory activity against SpNanC” value (SpNanC [6]; concentration up to 7.5 mM) is listed as “did not show inhibitory activity”, the “Inhibitory activity against SpNanB” value (SpNanB [7]; concentration up to 7.5 mM) is listed as “did not show inhibitory activity” and the “Inhibition of RgNanH” value (IT-sialidase RgNanH) is listed as “inhibited”.
In the case of `O=S(=O)(O)CCNC1CCCCC1` [CHES, 2-N-Cyclohexylaminoethanesulfonic acid], the “Inhibition against SpNanB” value (SpNanB [7]) is listed as “weak inhibition”.
